Reference: US12702715B2, “Targeted RNA degradation allows precision repurposing of protein-targeted small molecule medicines to RNA” (University of Florida Research Foundation, Incorporated, priority 2020, dated 2026)
Entries after “also recorded” stand apart in the source; their conditions may differ.

What was measured:
[1] = test system: 3×2 RNA internal loop library (3×2 ILL); assay: AbsorbArray 2DCS selection with Inforna fitness analysis; assay type: binding, human; conditions: Zobs>8
Procedure: Construction of AbsorbArray Small Molecule Microarrays. Microarrays were constructed as previously reported^4. Briefly, a 1% agarose solution was poured onto a glass slide and dried on the benchtop. A 200 nL aliquot of 68 hit compounds (10 mM in DMSO) was pinned onto the array from a 384-well plate using Biomek NXP Laboratory Automation Workstation. Slides were then dried overnight to obtain a thin, invisible agarose layer. Slides were washed three times with 1×PBST^5 and then three times with nanopure water. Slides were dried completely in the air before RNA selection, completed by Two-Dimensional Combinatorial Screening (2DCS).
RNA Selection and Screening by 2DCS. The 3×2 RNA ILL was 5′-end ^32P-labeled as previously described^7 and 2DCS selections were completed as previously described 4. All oligonucleotides were folded as described in the “Solution-based Dye Displacement Assay” section. Small molecule microarrays were pre-equilibrated by 3 mL 1× AB2 for 5 min. After removing the pre-equilibration buffer, 5′-end labeled folded 3×2 RNA ILL (~50,000 cpm) was added in 3 mL 1× AB2 containing 1 mM MgCl2 in the presence of competitor oligonucleotides (100 μM each). The oligonucleotide solution was evenly distributed across the microarray surface with a custom-cut piece of Parafilnm. After incubating for 30 min at room temperature, the Parafilm was removed, and the slide was washed gently by submersion in 1× AB2 for 30 s. This washing step was repeated three additional times, and the array was dried on the benchtop for 1 h. […] To harvest and collect the bound RNAs from the ILL, 1 μL of nanopure water was added to each spot. After 30 s, the water drop was absorbed into agarose gel, hydrating it such that it could be excised with a toothpick. The RNAs were eluted from the agarose by simple incubation with water, and then treated with RNase-free DNase I. A unique barcode for each small molecule was installed by reverse transcription (RT). Barcoded RNAs were amplified by PCR, purified, and identified by next-generation sequencing (NGS) using an Ion Proton deep sequencer using PI chips (60-80 million reads) as previously described^2.

FLT3 = target: T1, FLT3 (Homo sapiens, UniProt P36888); assay: Cellular Chem-CLIP/C-Chem-CLIP to study occupancy of an RTK; assay type: cell-based; conditions: 0.01-10 μM pre-treatment
T1 construct: endogenous in cells; host or cells: MDA-MB-231
T1 sequence (P36888 27-993): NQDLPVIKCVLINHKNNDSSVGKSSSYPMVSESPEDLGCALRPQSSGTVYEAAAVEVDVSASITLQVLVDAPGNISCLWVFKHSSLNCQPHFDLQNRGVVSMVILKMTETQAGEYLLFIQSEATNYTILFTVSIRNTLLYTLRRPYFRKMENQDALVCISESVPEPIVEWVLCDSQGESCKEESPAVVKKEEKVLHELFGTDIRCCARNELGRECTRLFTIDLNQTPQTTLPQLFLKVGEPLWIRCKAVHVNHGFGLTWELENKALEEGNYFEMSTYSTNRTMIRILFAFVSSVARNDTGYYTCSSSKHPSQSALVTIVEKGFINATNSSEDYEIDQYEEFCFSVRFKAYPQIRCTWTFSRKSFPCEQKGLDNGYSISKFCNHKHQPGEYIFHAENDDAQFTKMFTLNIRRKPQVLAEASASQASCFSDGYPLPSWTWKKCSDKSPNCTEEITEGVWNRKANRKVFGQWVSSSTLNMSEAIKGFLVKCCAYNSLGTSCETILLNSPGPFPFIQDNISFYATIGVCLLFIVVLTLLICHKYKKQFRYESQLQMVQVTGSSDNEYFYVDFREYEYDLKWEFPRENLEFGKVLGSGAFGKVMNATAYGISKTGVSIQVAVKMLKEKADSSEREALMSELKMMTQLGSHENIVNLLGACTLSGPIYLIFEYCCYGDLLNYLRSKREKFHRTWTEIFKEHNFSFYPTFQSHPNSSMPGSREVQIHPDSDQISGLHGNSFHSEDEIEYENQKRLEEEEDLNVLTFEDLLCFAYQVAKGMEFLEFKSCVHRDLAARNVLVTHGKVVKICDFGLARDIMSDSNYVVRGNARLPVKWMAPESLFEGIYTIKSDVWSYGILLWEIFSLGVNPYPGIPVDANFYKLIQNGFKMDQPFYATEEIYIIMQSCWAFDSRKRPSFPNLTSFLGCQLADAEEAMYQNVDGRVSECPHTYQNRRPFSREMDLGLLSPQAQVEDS
Procedure: Cellular Chem-CLIP/C-Chem-CLIP to Study Occupancy of an RTK. Compound treatment and isolation of cells was completed as described for cellular occupancy studies of pre-miR-21. Total protein was extracted and concentration determined as described in the “Western Blotting” section. Approximately 1 mg of total protein was used for following pull-down experiments, using a protocol adapted from a previously published method 8. Protein cross-linked to the probe were clicked to disulfide biotin azide as described above except the amount of each reagents was doubled (20 μL/sample). Then, to the mixture was added ice-cold, 4:1 mixture of methanol/chloroform (2.5 mL) followed by 1 mL of ice-cold 1×DPBS. The mixture was centrifuged at 5000×g for 10 min at 4° C. to fractionate a protein interphase between organic and aqueous layers. […] The washed protein mixture was centrifuged at 5000×g for 10 min at 4° C. to pellet the protein. The pellet was dissolved in H2O, and to this solution was added 20 μLL streptavidin beads for 30 min at room temperature. The solution was removed, and the beads were washed once with 0.2% SDS in 1×DPBS, twice with detergent-free 1×DPBS and twice with nanopure water. After these washing steps, protein was cleaved as described above. The supernatant was collected, and protein concentration was determined with Pierce Micro BCA Protein Assay kit. […] Sample preparation was completed as described above for cellular Chem-CLIP studies. Western blotting was performed on total protein (10 μg) before or after pull-down, indicated as “Input” or “Output”, as described in Western Blotting.

[2] = target: T2, RNase L / pre-miR-21 ternary complex (Homo sapiens, UniProt Q05823); assay: RNase L immunoprecipitation; assay type: cell-based; conditions: 1 μM, MDA-MB-231
T2 construct: endogenous in cells; host or cells: MDA-MB-231
T2 sequence (Q05823 1-741): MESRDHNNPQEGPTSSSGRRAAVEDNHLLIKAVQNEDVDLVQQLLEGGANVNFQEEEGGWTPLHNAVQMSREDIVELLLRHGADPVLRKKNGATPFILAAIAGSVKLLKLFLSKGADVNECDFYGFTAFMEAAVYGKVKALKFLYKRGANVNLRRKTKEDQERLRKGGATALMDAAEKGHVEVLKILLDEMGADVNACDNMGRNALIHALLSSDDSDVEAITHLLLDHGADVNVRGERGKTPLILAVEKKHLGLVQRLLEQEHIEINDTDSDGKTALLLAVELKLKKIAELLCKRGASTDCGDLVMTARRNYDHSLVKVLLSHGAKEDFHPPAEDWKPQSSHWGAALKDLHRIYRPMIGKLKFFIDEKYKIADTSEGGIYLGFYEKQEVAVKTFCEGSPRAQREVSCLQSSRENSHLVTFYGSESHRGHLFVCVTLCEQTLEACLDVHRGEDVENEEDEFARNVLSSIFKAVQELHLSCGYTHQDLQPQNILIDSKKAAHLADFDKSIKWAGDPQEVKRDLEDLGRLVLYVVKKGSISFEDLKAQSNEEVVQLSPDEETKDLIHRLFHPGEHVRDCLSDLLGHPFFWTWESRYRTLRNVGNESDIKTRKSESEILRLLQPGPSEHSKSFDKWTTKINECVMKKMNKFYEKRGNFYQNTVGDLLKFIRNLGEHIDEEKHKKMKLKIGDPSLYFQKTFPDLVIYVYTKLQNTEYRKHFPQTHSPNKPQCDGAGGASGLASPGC
Procedure: RNase L Immunoprecipitation. MDA-MB-231 cells were seed in 6-well plates and were treated with vehicle, 4 (1 μM) or 5 (1 μM) when the cells reached ~70% confluency. After 48 h, the cells were harvested and lysed in 100 μL of M-PER buffer containing protease inhibitor and RNaseOUT recombinant Ribonuclease Inhibitor (Invitrogen) on ice for 20 min. The lysate was centrifuged at 13,000×g for 15 min, and the supernatants were incubated with Dynabeads Protein A (Life Technologies) bound to RNase L mouse primary antibody or β-actin mouse primary antibody overnight at 4° C. After incubation, the beads were washed with 1×DPBS containing 0.02% (v/v) Tween-20, and RNA was extracted by using a miRNeasy Mini Kit (Qiagen) per the manufacturer's instructions. RT-qPCR was performed as described above. Relative RNA levels were determined by ΔΔCt method by normalizing to 18S rRNA levels. Normalized fold change was calculated as previously described^6.

pre-miR-21 = assay: RT-qPCR of pre-miR-21 levels in MDA-MB-231 cells; assay type: cell-based, human; conditions: MDA-MB-231, RT-qPCR
Procedure: Cell Culture. Cells were cultured at 37° C. and 5% CO2. MDA-MB-231 cells (HTB-26, ATCC) were cultured in RMPI 1640 medium with L-glutamine & 25 mM HEPES supplemented with 1× Antibiotic/Antimycotic solution (Corning) and 10% FBS. MCF-10A cells (CRL-10317, ATCC) were cultured in 1×DMEM/F12 50/50 with L-glutamine & 15 mM HEPES (Corning) supplemented with 20% FBS, 1× Antibiotic/Antimycotic solution, 20 ng/mL human epidermal growth factor (Pepro Tech, Inc.), 10 μg/mL insulin (Sigma-Aldrich), and […] hydrocortisone (Pfaltz & Bauer). For compound treatment, compound stocks either in DMSO or water were diluted in growth medium and added to cells for the indicated time. Plasmid DNA to overexpress pre-miR-21 in pcDNA 3.1 (Addgene 21114) or a plasmid DNA encoding the pre-miR-21 mutant (custom purchased from GenScript USA, Inc.) was transfected with jetPRIME per the manufacturer's protocol. After transfection, the medium was replaced with growth medium containing the compound of interest, prepared as described above. The RNase L-targeting siRNA or a control siRNA was transfected with Lipofectamine RNAiMAX reagent (Invitrogen) per the manufacturer's protocol.
RNA Isolation and Quantitative Real-Time PCR (RT-qPCR). After treatment, total RNA was extracted and purified by using the Zymo Quick-RNA mini prep kit per the manufacturer's protocol. Reverse Transcription (RT) for mature miRNAs as well as pri- and pre-miR-21 was completed on 200 ng of RNA by using a miScript 11 RT kit (QIAGEN) according to manufacturer's protocol. RT of mRNAs was performed by using QScript kit (Quanta Bio). An Applied Biosystems QS5 384-well PCR system was used to complete qPCR experiments using Power Sybr Green Mater Mix (Life Technologies) as described previously^6.

number of binding RNA motifs [1] | enrichment of pre-miR-21 in RNase L immunoprecipitation [2] | SMILES | competition of FLT3 enrichment by probe 4 (FLT3) | pre-miR-21 levels (pre-miR-21)
278 |  | NCCCNc1ccc2c3c(nn2CCNCCO)-c2c(O)ccc(O)c2C(=O)c13 [Piroxantrone] |  | 
274 |  | CN1c2ccccc2Sc2ccc(CC(=O)O)cc21 [Metiazinic Acid] |  | 
 | not | CCOC(=O)C1=C(Nc2ccccc2)S/C(=C\c2ccc(O)c(OCCOCCOCCOCCNC(=O)NCCN3CCN(c4ccc5[nH]c(-c6c(N)c7c(F)cccc7[nH]c6=O)nc5c4)CC3)c2)C1=O [Compound 7] | competed off; also recorded: between that observed for 1 and 2 | increasing pre-miR-21 levels
284 |  | COc1ccc(NC(=O)[C@H](CCCCN)NC(=O)c2cc(NC(=O)[C@H](CCCCN)NC(=O)c3cc(NC(=O)[C@H](CCCCN)NC(=O)c4cc(NC(=O)[C@@H](N)CCCCN)ccc4OC)ccc3OC)ccc2OC)cc1C(N)=O [Delparantag] |  | 
 |  | CCCNC(=O)NCCN1CCN(c2ccc3[nH]c(-c4c(N)c5c(F)cccc5[nH]c4=O)nc3c2)CC1 [Compound 8] | competed off | 
 | not | CCOC(=O)C1=C(Nc2ccccc2)S/C(=C\c2ccc(OCCOCCOCCOCCNC(C)=O)c(O)c2)C1=O [Compound 6] |  | had no effect
